Experimental data from patent US10889573B2, “Anthelmintic quinoline-3-carboxamide derivatives” (Bayer Animal Health GMBH, priority 2016, dated 2021).

Experiments:
[1] = test system: Nippostrongylus brasiliensis; assay: In vitro assay 2: Nippostrongylus brasiliensis (NIPOBR), acetylcholine esterase readout; conditions: read-out: activity (reduction of AChE compared to negative control); for inhibition at 1 µg/mL: 1 μg/ml; for inhibition at 10 µg/mL: 10 μg/ml
Procedure: In Vitro Assay 2: Nippostrongylus brasiliensis (NIPOBR)
Adult Nippostrongylus brasiliensis were washed with saline buffer containing 100 U/ml penicillin, 0.1 mg/ml streptomycin and 2.5 μg/ml amphotericin B. Test compounds were dissolved in DMSO and worms were incubated in medium in a final concentration of 10 μg/ml (10 ppm) respectively 1 μg/ml (1 ppm). An aliquot of the medium was used to determine the acetylcholine esterase activity in comparison to a negative control. The principle of measuring acetylcholine esterase as readout for anthelmintic activity was described in Rapson et al (1986) and Rapson et al (1987).

[2] = test system: Dirofilaria immitis microfilariae; assay: In vitro assay 3: Dirofilaria immitis microfilariae (DIROIM L1), motility; conditions: 72 h, read-out: EC50 (reduction of motility), 72 h incubation
[3] = test system: Dirofilaria immitis third-stage larvae; assay: In vitro assay 4: Dirofilaria immitis (DIROIM L4), motility; conditions: 72 h, read-out: EC50 (reduction of motility)
[4] = test system: Cooperia curticei; conditions: Cooperia curticei, 120 h, read-out: activity (larval mortality)
Procedure: In Vitro Assay 6: Cooperia curticei (COOPCU L3)
Solvent: dimethyl sulfoxide
Approximately 40 nematode larvae (Cooperia curticei) are transferred into a test tube containing the compound solution.
After 5 days percentage of larval mortality is recorded. 100% efficacy means all larvae are killed; 0% efficacy means no larvae are killed.

[5] = test system: Haemonchus contortus; conditions: 120 h, read-out: activity (larval mortality)
Procedure: In Vitro Assay 7: Haemonchus contortus (HAEMCO L3)
Solvent: dimethyl sulfoxide
Approximately 40 larvae of the red stomach worm (Haemonchus contortus) are transferred into a test tube containing compound solution.
After 5 days the percentage of larval mortality is recorded. 100% efficacy means all larvae are killed, 0% efficacy means no larvae are killed.

[6] = biological target: C. elegans Slo-1a (Caenorhabditis elegans, UniProt Q95V25); conditions: pE50 (negative decadic logarithm of EC50), CHO cells expressing C. elegans Slo-1a, voltage sensitive dye
Chain of C. elegans Slo-1a (Q95V25 whole entry): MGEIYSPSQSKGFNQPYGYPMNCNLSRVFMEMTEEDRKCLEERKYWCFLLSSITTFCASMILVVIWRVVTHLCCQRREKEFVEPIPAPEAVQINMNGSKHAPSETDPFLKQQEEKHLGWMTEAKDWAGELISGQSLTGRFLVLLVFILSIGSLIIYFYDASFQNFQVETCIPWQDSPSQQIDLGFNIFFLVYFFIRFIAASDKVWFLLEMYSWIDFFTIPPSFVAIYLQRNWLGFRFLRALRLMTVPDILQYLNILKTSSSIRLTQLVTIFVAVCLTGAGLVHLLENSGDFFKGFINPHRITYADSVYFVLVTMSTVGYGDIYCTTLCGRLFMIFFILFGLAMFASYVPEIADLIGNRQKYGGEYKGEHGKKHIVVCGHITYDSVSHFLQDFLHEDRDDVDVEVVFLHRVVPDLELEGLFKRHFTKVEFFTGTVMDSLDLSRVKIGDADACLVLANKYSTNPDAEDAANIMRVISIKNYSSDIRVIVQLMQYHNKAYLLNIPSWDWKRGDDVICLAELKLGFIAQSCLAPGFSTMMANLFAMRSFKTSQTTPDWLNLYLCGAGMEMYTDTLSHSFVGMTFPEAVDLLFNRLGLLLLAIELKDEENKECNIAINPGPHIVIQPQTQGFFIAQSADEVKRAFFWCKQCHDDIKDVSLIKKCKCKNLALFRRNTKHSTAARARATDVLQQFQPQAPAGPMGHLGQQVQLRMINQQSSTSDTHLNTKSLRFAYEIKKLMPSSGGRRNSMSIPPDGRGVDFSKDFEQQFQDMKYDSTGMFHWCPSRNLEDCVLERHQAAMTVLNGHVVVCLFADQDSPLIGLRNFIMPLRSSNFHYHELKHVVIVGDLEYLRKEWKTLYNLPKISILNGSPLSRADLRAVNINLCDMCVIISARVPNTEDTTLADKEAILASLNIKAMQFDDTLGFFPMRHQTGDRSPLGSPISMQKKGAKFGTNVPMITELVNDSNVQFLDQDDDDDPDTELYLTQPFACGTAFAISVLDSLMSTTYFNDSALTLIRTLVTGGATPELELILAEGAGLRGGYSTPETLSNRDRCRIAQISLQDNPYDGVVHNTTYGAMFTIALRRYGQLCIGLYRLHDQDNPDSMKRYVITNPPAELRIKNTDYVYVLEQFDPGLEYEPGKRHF

SMILES	inhibition at 1 µg/mL [1] [%]	EC50 [2] [µg/mL]	EC50 [3] [µg/mL]	mortality at 4 ppm [4] [%]	mortality at 20 ppm [4] [%]	mortality at 4 ppm [5] [%]	mortality at 20 ppm [5] [%]	EC50 [6] [nM]	inhibition at 10 µg/mL [1] [%]
O=C(N[C@H]1CCOc2ccccc21)c1cnc2c(-c3cc(F)cc(F)c3F)cccc2c1C1COC1 [Example 660, N-[(4S)-3,4-dihydro-2H-chromen-4-yl]-4-(oxetan-3-yl)-8-(2,3,5-trifluorophenyl)quinoline-3-carboxamide]	> 80	< 0.1	< 0.1	100	100	100	100	< 3.16	–
COc1ccc(-c2cc(Cl)cc(Cl)c2)c2ncc(C(=O)N[C@H]3CCOc4ccccc43)c(N(C)C)c12 [Example 504]	> 80	< 0.1	< 0.1	100	100	100	100	< 3.16	–
O=C(N[C@H]1CCOc2ccccc21)c1cnc2c(-c3cccc(OC(F)(F)F)c3)cccc2c1N1CCOCC1 [Example 322]	> 80	< 0.1	< 0.1	–	80	–	–	< 3.16	–
CN(C)c1c(C(=O)NC2CSc3ccccc32)cnc2c(-c3cc(Cl)cc(Cl)c3)cccc12 (stereo not shown) [Example 493]	–	< 0.1	< 0.1	–	–	–	–	3.16 to 31.6	–
N#Cc1c(C(=O)N[C@H]2CCOc3ccccc32)cnc2c(-c3cc(Cl)cc(Cl)c3)cccc12 [Example 362, 4-cyano-8-(3,5-dichlorophenyl)-N-[(4S)-3,4-dihydro-2H-chromen-4-yl] quinoline-3-carboxamide]	> 80	< 0.1	< 0.1	–	–	–	–	–	> 80
O=C(N[C@H]1CCOc2ccccc21)c1cnc2c(-c3cc(Cl)cc(Cl)c3)cccc2c1C1CCOCC1 [Example 539, 8-(3,5-dichlorophenyl)-N-[(4S)-3,4-dihydro-2H-chromen-4-yl]-4-(tetrahydro-2H-pyran-4-yl)quinoline-3-carboxamide]	–	< 0.1	< 0.1	100	100	100	100	< 3.16	–
N#CCc1c(C(=O)N[C@H]2CCOc3ccccc32)cnc2c(-c3cc(Cl)cc(Cl)c3)cccc12 [Example 355, 4-(cyanomethyl)-8-(3,5-dichlorophenyl)-N-[(4S)-3,4-dihydro-2H-chromen-4-yl]quinoline-3-carboxamide]	> 80	< 0.1	< 0.1	–	–	–	–	< 3.16	–
COCCOc1c(C(=O)N[C@H]2CCOc3ccccc32)cnc2c(-c3cc(Cl)cc(Cl)c3)cccc12 [Example 338]	> 80	< 0.1	< 0.1	90	90	–	–	< 3.16	> 80
COc1cc(-c2cccc3c(N(C)C)c(C(=O)N[C@H]4CCOc5ccccc54)cnc23)ccn1 [Example 64]	–	< 0.1	< 0.1	–	–	–	–	3.16 to 31.6	> 80
O=C(N[C@H]1CCOc2ccccc21)c1cnc2c(-c3cc(Cl)sc3Cl)cccc2c1N1CCOCC1 [Example 441]	> 80	< 0.1	< 0.1	–	–	–	–	< 3.16	–
O=C(N[C@H]1CCOc2ccccc21)c1cnc2c(-c3cccc(F)c3Cl)cccc2c1N1CCC(O)C1 (mixture of isomers) [Example 258]	–	< 0.1	< 0.1	80	–	–	90	3.16 to 31.6	–
O=C(N[C@H]1CCOc2ccccc21)c1cnc2c(-c3cccc(Cl)c3Cl)c(C(F)(F)F)ccc2c1N1CCOCC1 [Example 314]	> 80	< 0.1	< 0.1	–	90	–	–	< 3.16	–
Cc1ccc(F)c(-c2cccc3c(N(C)C)c(C(=O)N[C@H]4CCOc5ccccc54)cnc23)c1 [Example 437]	> 80	< 0.1	< 0.1	80	–	–	–	< 3.16	–
O=C(N[C@H]1CCOc2ccccc21)c1cnc2c(-c3cc(Cl)c(F)c(Cl)c3)cc(F)cc2c1N1CCOCC1 [Example 43]	> 80	< 0.1	< 0.1	–	–	–	–	< 3.16	> 80
O=C(N[C@H]1CCOc2ccccc21)c1cnc2c(-c3cc(Cl)cc(Cl)c3)cccc2c1N1CCC[C@H]1C(=O)O [Example 261, 1-{8-(3,5-dichlorophenyl)-3-[(4S)-3,4-dihydro-2H-chromen-4-ylcarbamoyl]quinolin-4-yl}-L-proline]	> 80	< 0.1	< 0.1	–	–	–	–	–	–
Cc1cc(-c2cccc3c(N4CCOCC4)c(C(=O)N[C@H]4CCOc5ccccc54)cnc23)cc(C(C)(C)C)c1 [Example 587]	> 80	< 0.1	< 0.1	–	80	–	–	< 3.16	–
